ChEMBL document CHEMBL1201862, “PubChem BioAssay data set” (2004)
The source made the active and inactive calls.

Tests used:
[1] = molecular target: T1, Apoptotic protease-activating factor 1 (Homo sapiens, UniProt O14727); format: functional
T1 sequence (O14727 whole entry): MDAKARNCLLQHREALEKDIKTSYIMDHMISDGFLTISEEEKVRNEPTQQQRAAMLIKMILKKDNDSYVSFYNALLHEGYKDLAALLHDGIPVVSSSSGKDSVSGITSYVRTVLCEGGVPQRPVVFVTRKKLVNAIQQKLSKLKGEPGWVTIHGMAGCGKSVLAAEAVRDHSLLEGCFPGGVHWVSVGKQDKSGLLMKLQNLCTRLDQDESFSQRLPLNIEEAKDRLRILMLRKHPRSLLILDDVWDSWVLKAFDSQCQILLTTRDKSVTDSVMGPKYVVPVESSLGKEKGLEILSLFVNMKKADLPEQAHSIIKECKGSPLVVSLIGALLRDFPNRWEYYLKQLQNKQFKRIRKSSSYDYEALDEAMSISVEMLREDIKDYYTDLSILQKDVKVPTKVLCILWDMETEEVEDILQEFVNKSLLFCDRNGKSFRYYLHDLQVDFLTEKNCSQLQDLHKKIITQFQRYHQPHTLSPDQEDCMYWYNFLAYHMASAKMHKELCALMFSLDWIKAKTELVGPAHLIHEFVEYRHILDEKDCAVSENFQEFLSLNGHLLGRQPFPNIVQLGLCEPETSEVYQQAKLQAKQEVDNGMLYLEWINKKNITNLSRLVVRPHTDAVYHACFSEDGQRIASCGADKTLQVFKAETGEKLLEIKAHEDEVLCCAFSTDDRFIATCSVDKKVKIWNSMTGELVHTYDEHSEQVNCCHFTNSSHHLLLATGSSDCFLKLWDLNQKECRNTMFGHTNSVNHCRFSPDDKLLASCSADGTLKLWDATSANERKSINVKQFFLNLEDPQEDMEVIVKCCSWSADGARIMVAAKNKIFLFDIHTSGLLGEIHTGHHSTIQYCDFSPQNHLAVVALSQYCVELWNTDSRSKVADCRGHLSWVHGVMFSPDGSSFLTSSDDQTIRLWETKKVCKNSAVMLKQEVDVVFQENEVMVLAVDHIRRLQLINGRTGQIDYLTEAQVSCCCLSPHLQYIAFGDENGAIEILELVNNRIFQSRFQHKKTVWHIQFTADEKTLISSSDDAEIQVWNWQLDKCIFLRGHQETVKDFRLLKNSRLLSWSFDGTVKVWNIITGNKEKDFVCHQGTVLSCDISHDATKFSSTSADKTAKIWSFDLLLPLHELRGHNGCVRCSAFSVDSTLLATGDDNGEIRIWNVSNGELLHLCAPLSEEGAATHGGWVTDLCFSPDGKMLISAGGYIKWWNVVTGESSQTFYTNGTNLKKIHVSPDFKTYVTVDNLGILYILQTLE

INS1 = assay: beta cell apoptosis inhibitors, cytokine rescue, dose response, luminescence, retest (AID 449756); format: functional, cell-based; conditions: Rattus norvegicus;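 further: cell death triggered by IL-1 beta plus TNF-alpha plus IFN-gamma mixture; protective hits raise ATP signal compared with cytokine alone wells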
[2] = off-target signal loss in HeLa-CEM21 co-culture – HeLa F-luc CTL cells, cherry-picked, counter-screen for HIV-1 Env fusion inhibitor project, dose response (AID 652040); format: functional, cell-based;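 further: potency for signal decrease marking cytotoxic or nonspecific inhibition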
[3] = molecular target: T2, Ubiquitin-conjugating enzyme E2 N (Homo sapiens, UniProt P61088); format: functional;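 further: Dose-response confirmation in a TR-FRET assay detecting UBC13-driven polyubiquitin chain formation, inhibition measured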
T2 sequence (P61088 whole entry): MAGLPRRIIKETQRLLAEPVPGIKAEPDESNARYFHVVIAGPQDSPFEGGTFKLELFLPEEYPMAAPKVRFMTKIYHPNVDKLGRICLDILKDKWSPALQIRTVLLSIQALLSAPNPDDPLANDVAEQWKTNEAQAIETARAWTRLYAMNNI

Streptokinase A = molecular target: T3, Streptokinase A (Streptococcus pyogenes serotype M1, UniProt P10520); assay: S. pyogenes streptokinase expression inhibitors, potency, dose response, plasminogen activation absorbance, OD405 (AID 1914); format: functional, Streptococcus pyogenes M1 GAS;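 further: secreted streptokinase activity via plasminogen activation per viability signal from cell pellet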
T3 sequence (P10520 whole entry): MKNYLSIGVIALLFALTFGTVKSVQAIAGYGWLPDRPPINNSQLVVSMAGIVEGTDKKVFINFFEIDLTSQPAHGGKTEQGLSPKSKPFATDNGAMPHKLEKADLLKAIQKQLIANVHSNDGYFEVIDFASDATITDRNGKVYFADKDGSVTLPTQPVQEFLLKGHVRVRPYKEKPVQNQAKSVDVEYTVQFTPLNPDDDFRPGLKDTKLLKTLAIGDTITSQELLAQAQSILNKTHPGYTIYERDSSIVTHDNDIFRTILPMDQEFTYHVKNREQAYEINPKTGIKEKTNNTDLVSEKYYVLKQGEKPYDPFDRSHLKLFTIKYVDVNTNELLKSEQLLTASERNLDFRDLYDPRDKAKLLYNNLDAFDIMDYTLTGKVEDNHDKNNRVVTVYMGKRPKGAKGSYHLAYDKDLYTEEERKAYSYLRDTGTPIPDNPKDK

[4] = inhibitors of SNCA 5'UTR-driven reporter translation, confirmation, H4 neuroglioma cells, luminescence (AID 1988); format: functional, cell-based
[5] = luciferase reporter signal reduction – luminescence, H4-C neuroglioblastoma cells, dose response (AID 2458); format: functional, cell-based;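 further: H4 neuroglioblastoma cells stably carrying a luciferase reporter gene fusion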
[6] = molecular target: Sphingosine 1-phosphate receptor 1 (Homo sapiens, UniProt P21453); format: functional;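 further: Tango beta-arrestin reporter U2OS cells stimulated with S1P near its EC80; inhibitor potency meaning antagonism of receptor activation by the natural agonist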
Sphingosine 1-phosphate receptor 1, sequence (P21453 whole entry): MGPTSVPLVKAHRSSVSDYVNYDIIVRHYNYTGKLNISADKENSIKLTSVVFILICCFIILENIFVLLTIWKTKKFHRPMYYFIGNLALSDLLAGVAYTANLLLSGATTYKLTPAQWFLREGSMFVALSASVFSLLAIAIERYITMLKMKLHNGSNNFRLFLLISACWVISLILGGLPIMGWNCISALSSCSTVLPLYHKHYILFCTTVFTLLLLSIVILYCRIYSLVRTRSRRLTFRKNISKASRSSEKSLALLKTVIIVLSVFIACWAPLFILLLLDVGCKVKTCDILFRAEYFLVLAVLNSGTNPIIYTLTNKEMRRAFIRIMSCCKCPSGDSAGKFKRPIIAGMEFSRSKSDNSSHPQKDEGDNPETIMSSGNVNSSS

[7] = inhibitors of firefly luciferase expression or activity, dose response, H4 neuroglioma cells, luminescence (AID 1990); format: functional, cell-based
[8] = inhibitors of SNCA 5'UTR-driven translation, confirmation, luminescence, H4 neuroglioblastoma cells, dose confirmation (AID 2454); format: functional, cell-based;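 further: H4 neuroglioblastoma cells carrying an alpha-synuclein 5'UTR luciferase reporter; potency for inhibition of the luciferase signal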
[9] = Luminescence Cell-Based Dose Response HTS to Identify Inhibitors of 5'UTR Stem-Loop Driven Prion Protein mRNA Translation in H4 Neuroglioblastoma Cells. [Related pubchem assays: 1827 (Project Summary), 1813 (Primary HTS)]; format: functional
Caspase-8 = Caspase-8 (Homo sapiens, UniProt Q14790); assay: caspase-8 inhibition counter-screen, dose response, selectivity assay for caspase-6 inhibitor project, biochemical, Z-IETD-R110 fluorescence, cherry-picked samples (AID 743294)
Caspase-8, sequence (Q14790 217-374 limits assumed): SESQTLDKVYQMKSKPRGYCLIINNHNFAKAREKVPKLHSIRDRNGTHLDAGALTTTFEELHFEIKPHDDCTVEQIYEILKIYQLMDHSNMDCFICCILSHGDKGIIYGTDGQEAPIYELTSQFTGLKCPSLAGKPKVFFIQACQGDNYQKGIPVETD
Caspase-8, sequence (Q14790 385-479 limits assumed): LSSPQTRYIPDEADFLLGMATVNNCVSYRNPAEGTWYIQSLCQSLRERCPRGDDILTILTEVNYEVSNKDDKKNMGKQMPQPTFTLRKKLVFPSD

[10] = molecular target: Matrix metalloproteinase-14 (Homo sapiens, UniProt P50281); assay: Dose Response confirmation of uHTS hits for a small molecule inhibitors of MT1-MMP activation in a fluorescence assay set 2.; format: functional
Fatty acid synthase [11] = molecular target: T4, Fatty acid synthase (Homo sapiens, UniProt P49327); assay: FAS thioesterase domain inhibitors, dose response, biochemical, kinetic fluorescence intensity (AID 624326); format: functional;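 further: rate of fluorescence rise from hydrolysis of a fluorogenic O-methyl fluorescein ester substrate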
T4 sequence (P49327 whole entry, the tested form may be a part): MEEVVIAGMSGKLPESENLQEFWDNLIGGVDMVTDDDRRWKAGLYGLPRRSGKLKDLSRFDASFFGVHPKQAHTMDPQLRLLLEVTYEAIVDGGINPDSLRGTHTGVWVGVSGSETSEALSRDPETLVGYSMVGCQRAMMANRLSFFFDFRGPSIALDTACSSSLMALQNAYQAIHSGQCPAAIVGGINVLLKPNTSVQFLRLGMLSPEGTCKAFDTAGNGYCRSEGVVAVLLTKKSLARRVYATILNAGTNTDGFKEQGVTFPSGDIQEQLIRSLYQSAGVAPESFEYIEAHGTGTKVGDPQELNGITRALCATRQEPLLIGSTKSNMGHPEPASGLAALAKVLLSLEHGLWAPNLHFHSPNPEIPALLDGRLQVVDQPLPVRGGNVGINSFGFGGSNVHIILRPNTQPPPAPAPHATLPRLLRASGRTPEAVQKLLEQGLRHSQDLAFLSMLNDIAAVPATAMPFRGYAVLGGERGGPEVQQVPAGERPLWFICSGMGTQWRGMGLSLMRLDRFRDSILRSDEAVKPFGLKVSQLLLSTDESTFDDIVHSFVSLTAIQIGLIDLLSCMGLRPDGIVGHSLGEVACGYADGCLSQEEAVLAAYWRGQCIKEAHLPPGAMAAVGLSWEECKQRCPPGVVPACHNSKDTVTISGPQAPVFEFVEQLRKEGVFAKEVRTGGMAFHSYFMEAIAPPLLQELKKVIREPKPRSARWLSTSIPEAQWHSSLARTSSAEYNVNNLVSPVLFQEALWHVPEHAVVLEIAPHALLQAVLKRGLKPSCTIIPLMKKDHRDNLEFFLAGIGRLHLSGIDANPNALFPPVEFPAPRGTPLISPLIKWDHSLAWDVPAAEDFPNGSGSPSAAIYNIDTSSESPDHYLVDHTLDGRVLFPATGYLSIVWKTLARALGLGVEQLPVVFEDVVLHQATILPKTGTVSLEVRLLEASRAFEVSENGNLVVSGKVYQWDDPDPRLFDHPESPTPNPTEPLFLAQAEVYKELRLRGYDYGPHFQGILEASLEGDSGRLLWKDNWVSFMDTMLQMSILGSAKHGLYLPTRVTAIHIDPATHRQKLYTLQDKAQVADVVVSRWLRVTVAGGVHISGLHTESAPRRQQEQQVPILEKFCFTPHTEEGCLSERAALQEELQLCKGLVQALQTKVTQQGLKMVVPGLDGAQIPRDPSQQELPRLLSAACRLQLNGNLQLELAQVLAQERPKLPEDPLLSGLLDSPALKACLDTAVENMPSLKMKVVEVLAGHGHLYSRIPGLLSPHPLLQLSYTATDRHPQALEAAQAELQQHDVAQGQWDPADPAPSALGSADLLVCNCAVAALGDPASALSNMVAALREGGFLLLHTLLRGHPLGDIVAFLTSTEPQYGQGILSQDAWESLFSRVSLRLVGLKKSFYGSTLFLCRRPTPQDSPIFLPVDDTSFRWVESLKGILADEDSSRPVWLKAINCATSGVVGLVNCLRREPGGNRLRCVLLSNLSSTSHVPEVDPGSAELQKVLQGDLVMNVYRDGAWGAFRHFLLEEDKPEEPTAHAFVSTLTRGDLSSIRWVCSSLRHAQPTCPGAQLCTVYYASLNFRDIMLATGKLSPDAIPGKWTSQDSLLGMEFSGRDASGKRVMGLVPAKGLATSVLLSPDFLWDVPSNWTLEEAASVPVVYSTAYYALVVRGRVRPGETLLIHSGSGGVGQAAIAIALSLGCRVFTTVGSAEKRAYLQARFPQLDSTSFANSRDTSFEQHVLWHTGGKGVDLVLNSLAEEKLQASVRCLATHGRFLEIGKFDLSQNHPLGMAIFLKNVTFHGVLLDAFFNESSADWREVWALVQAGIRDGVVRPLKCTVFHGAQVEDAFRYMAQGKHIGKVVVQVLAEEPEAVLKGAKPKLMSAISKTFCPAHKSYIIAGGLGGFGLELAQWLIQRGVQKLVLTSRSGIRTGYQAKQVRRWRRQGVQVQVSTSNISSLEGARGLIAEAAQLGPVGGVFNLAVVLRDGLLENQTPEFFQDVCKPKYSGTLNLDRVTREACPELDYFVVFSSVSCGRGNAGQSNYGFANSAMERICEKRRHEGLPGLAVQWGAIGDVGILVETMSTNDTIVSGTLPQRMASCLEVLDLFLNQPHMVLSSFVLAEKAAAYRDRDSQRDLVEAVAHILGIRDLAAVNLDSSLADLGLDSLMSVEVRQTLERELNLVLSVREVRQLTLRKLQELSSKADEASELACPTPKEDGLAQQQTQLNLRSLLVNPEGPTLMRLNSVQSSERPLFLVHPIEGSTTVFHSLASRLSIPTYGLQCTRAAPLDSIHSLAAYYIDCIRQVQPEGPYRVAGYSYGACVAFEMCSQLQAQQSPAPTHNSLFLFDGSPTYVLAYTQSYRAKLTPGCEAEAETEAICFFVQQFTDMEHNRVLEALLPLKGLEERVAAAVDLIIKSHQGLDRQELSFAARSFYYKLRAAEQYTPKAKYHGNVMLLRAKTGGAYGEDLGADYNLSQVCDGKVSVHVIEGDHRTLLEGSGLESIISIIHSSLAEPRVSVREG

[12] = molecular target: Intestinal-type alkaline phosphatase (Homo sapiens, UniProt P09923); assay: inhibition of human intestinal alkaline phosphatase – biochemical, dose response (AID 488876); format: functional
Intestinal-type alkaline phosphatase, sequence (P09923 whole entry, the tested form may be a part): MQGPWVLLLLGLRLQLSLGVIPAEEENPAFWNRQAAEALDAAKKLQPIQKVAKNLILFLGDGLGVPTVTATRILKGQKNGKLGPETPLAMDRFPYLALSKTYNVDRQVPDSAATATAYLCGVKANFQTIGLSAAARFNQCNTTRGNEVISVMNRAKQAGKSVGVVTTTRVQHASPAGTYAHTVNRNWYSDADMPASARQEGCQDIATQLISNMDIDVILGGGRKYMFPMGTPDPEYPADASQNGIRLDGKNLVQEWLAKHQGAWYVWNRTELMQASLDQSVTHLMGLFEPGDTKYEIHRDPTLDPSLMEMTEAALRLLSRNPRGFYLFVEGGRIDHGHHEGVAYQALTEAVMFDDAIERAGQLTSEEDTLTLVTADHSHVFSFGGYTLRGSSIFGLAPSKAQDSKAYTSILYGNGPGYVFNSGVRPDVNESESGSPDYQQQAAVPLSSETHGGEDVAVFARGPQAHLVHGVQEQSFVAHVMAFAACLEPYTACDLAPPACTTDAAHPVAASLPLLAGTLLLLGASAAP

Fatty acid synthase [13] = molecular target: T4, Fatty acid synthase; assay: FAS thioesterase domain inhibitors, dose response, biochemical, endpoint fluorescence intensity, uHTS hits (AID 624327); format: functional;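 further: fluorescence from hydrolysis of an O-methyl fluorescein acyl ester substrate by the enzyme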
Troponin, cardiac muscle = Troponin, cardiac muscle (Homo sapiens, UniProt P19429+P45379+P63316); assay: inhibitors of cardiac thin filament calcium sensitivity, dose response, biochemical, fluorescence, cardiac regulated thin filaments, triplicate IC50 (AID 504742); format: protein-complex assay

CCCCCCCCCCOC(=O)C[n+]1c(COc2ccccc2OC)n(C)c2ccccc21
active: IC50 [1] 14.3 µM | AC50 (INS1) 1.04 µM | AC50 [2] 12.3 µM | IC50 [3] 15.6 µM
> 150 µM (not active): EC50 (Streptokinase A)

Cc1oc2c(c1C(=O)NCc1cccnc1)C(=O)c1ccccc1C2=O
active: EC50 [4] < 0.1 µM | EC50 [5] 0.127 µM | IC50 [6] 3.65 µM | EC50 [7] < 0.1 µM | EC50 [8] 0.145 µM | EC50 [9] < 0.1 µM

O=c1ccc2c(-c3ccccc3S(=O)(=O)O)c3ccc(O)c(O)c3oc-2c1O [PYROGALLOL RED]
inactive: AC50 (Caspase-8) > 70 µM | IC50 [12] > 100 µM
active: IC50 [10] 19.6 µM | IC50 (Fatty acid synthase [11]) 10.4 µM | IC50 (Fatty acid synthase [13]) 16.2 µM | IC50 (Troponin, cardiac muscle) 0.558 µM
